Data on five molecules can be found in US5250561A, “Tetrahydroindazole, tetrahydrocyclopentapyrazole, and hexahydrocycloheptapyrazole compounds and their use as HMG-COA reductase inhibitors” (Ortho Pharmaceutical Corporation, priority 1992, dated 1993).

Structures are written as SMILES.

For test [1], the system named is HMG-CoA reductase. The note with it: lovastatin: open dihydroxy acid form; cited from earlier work.
For test [2] the following is noted: cited from earlier work.
Test [3] concerns the target HMG-CoA reductase. The experiment in a line: HMG-CoA Reductase Isolation And Assay (ammonium sulfate precipitated enzyme from rat liver). The format is biochemical, male Wistar rats. The note with it: racemic mixture. As for the experimental part:
Livers were harvested from male Wistar rats (250 g) following a five day feeding with powdered chow containing 2% cholestyramine. Ammonium sulfate precipitated HMG-CoA reductase was prepared from these livers according to the method of Heller, et. al. (Heller, R. A. Shrewsbury, M. A. Journal of Biological Chemistry, 251, 1976, 3815-3822). HMG-CoA reductase activity was measured using a modification of the procedure of Edwards, et. al. (Edwards, P. A., Lemongello, […]. Journal of Lipid Research, 20, 1979, 40-46). The effects of compounds on HMG-CoA reductase activity were determined by combining the compound with the enzyme and preincubating for 10 minutes prior to addition of the substrate […].

The test system of a further test is Hep-G2 cells. The experiment in a line: Cell Culture Cholesterol Biosynthesis Assay. The format is cell-based. As to conditions: Homo sapiens, racemic mixture. As for the experimental part:
When the cells were 2/3 confluent, they were fed MEM containing Earles salts and delipidated serum protein (DLP) at 5 mg/mL and then incubated for a period of 24 h. DLP was prepared according to the procedure of Rothblat, et. al. ([…]., Howard, B. V. In Vitro (Rockville), 12, 1976, 554-557). The DLP medium was then removed and 3.3 mL of media containing the drug indicated was added. […] Fatty acids were extracted and digitonin precipitable sterols were recovered according the procedure of Kanduch and Saucier (Kandutch, A. A., Saucier, S. E. Journal of Biological Chemistry, 244, 1969, 2299-2305). To adjust for cell number per flask, the cholesterol synthesized was normalized to the fatty acids synthesized and results were expressed as percent inhibition vs. control.

For the molecule `CCC(C)(C)C(=O)O[C@H]1C[C@@H](C)C=C2C=C[C@H](C)[C@H](CC[C@@H]3C[C@@H](O)CC(=O)O3)[C@H]21` [simvastatin], the “inhibition of HMG-CoA reductase (in words)” value in the test on HMG-CoA reductase [1] was “inhibitors of HMG-CoA reductase”.
On to `CC[C@H](C)C(=O)O[C@H]1C[C@@H](C)C=C2C=C[C@H](C)[C@H](CC[C@@H]3C[C@@H](O)CC(=O)O3)[C@H]21` [lovastatin], for which, in the test with HMG-CoA reductase [1], the “inhibition of HMG-CoA reductase (in words)” value was “reversible, competitive inhibitor of the enzyme”. Also, the “effect of combined administration with other hypolipidemic agents on LDL and total cholesterol concentrations” value in test [2] (combination) is “potentiate their effects on LDL and total cholesterol concentrations”. Also, the “reduction of LDL cholesterol levels compared with cholestyramine and probucol” value in test [2] (primary hypercholesterolemia) is on record as “reduced LDL cholesterol levels to a significantly greater extent”. Moreover, the “increase in high density lipoprotein (HDL) cholesterol concentration” value in test [2] (several large clinical studies) is reported as “up to 10%”.
Consider `CCOC(=O)C[C@H](O)C[C@H](O)/C=C/c1c2c(nn1-c1ccc(F)cc1)C(Cc1ccccc1)CCC2` (mixture of isomers) [Compound 47, Ethyl (E)-(3RS,5SR)-7-[7-benzyl-2-(4-fluorophenyl)-4,5,6,7-tetrahydro-2H-indazol-3-yl]-3,5-dihydroxy-6-heptenoate], for which the IC50 on HMG-CoA reductase [3] (Table IV) is 120 nM; in the test with Hep-G2 cells (HepG2, Table IV), 290 nM.
On to `O=C(O)C[C@H](O)C[C@H](O)/C=C/c1c2c(nn1-c1ccc(F)cc1)C(Cc1ccc3ccccc3c1)CCC2` (some centres unmarked) [Compound 13], for which the IC50 amounted to 5.6 nM on HMG-CoA reductase [3] (Table III) and 330 nM in the test with Hep-G2 cells (HepG2, Table III).
The corresponding values for `O=C(O)C[C@H](O)C[C@H](O)/C=C/c1c2c(nn1-c1ccc(F)cc1)C(Cc1ccccc1Cl)CCC2` (some centres unmarked) [Compound 12] are 100 nM and 1300 nM.
